Experimental data as given in PMC6476273, “Engineering a Model Cell for Rational Tuning of GPCR Signaling” (Cell, 2019).
Where two headings read alike, the source gives them in different places. Ends that are not written are not given here.

Columns and labels:
[1] = target: T1, human A2BR receptor (Homo sapiens, UniProt P29275); assay: Adenosine dose-response, A2BR sensor strain, sfGFP by flow cytometry; format: cell-based; settings: Fig S6C, wild-type Gpa1, triplicate isolates
T1 sequence (P29275 1-332): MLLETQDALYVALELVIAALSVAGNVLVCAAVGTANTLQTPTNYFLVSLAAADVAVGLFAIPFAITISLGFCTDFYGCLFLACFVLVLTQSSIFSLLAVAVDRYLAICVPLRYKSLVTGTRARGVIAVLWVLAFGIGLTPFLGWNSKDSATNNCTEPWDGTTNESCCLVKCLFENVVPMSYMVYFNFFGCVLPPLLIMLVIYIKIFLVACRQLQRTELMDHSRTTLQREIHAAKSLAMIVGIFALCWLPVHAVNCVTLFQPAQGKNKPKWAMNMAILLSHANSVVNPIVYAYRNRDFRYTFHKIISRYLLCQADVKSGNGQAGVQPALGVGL
T1 sequence (P08539 2-472 partner): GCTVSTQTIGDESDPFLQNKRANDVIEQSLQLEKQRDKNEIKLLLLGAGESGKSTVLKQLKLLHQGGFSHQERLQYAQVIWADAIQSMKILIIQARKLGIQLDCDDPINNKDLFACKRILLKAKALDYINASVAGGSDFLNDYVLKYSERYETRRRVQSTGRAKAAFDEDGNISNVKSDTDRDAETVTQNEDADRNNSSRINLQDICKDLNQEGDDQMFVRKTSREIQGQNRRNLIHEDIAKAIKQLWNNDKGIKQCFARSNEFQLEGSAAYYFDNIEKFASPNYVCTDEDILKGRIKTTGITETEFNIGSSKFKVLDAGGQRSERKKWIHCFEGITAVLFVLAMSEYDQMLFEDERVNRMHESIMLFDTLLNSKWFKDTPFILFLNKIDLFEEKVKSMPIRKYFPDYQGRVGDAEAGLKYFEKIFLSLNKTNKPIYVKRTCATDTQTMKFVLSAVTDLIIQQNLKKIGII

[2] = target: T1, human A2BR receptor; assay: Adenosine dose-response, A2BR single strain and three-strain consortium, sfGFP by plate reader; format: cell-based; settings: for Hill slope: plate reader
[3] = tested on: P. brasiliensis Ste2 homolog (PbSte2); settings: PbSte2 in S. cerevisiae; ref Ostrov et al., 2017; cited from earlier work
Source text: (§1) (D) The ... || For pathogen detection, we next set out to tune a point-of-care sensor for Paracoccidioides brasiliensis, recently developed by [Ostrov et al. (2017)]. This yeast GPCR-based sensor, utilizing the Ste2 homolog from P. brasiliensis (PbSte2), detects environmental levels of pheromone peptide released by haploid P. brasiliensis cells (PbPeptide) as a means of specifically detecting this human pathogen in complex samples (Figure 6E).

[4] = tested on: P. brasiliensis Ste2 homolog (PbSte2); assay: PbPeptide dose-response, PbSte2 sensor single cell and two-cell amplifier-receiver consortium, GFP by plate reader; format: cell-based, Paracoccidioides brasiliensis
Source text: as §1, with “For” for “(D) The ... || For”, “6E). […] To optimize these two properties, we applied our amplifier-receiver two strain approach to the PbSte2 sensor (Figures 6F–6H).” for “6E).”

[5] = tested on: Ste2; assay: α-factor dose-response of pheromone response pathway strains, sfGFP by flow cytometry; format: cell-based, Saccharomyces cerevisiae
[6] = target: T2, human MTNR1A receptor (Homo sapiens, UniProt P48039); settings: for Hill slope: plate reader
[7] = target: T2, human MTNR1A receptor
[8] = target: T3, Mam2 receptor (Schizosaccharomyces pombe, UniProt Q00619); assay: P-factor dose-response, Mam2 sensor strain in yWS677, sfGFP by flow cytometry; format: cell-based
T3 construct: expressed in transfected cells; host or cells: Saccharomyces cerevisiae yWS677 (BY4741 derivative), chromosomally integrated YTK cassette
T3 sequence (Q00619 1-348): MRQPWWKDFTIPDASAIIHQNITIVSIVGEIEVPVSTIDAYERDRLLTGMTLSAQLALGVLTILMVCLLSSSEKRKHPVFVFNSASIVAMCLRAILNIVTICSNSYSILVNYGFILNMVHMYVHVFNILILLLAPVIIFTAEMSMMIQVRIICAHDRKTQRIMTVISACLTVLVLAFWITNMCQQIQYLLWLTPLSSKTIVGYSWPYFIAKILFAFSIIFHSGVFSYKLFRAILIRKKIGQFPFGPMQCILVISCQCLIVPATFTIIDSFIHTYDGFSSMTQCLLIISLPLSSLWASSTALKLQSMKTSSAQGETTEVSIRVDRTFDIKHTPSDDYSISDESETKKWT

[9] = three-strain consortium 1:1:1 vs initial response

T2 sequence (P48039 whole entry, one chain of several): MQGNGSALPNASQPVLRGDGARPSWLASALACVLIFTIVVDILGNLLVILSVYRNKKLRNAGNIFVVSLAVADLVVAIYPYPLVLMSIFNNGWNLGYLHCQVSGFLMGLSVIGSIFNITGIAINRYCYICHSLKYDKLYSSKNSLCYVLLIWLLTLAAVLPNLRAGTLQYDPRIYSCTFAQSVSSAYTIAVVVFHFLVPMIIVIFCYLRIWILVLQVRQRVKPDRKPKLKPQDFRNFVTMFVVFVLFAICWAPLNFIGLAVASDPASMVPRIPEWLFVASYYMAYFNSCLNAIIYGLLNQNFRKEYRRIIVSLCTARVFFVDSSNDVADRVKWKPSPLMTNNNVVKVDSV

Nc1ncnc2c1ncn2[C@@H]1O[C@H](CO)[C@@H](O)[C@H]1O [Adenosine]
Hill slope [1]: 1.32 ± 0.08
Hill slope ([2]; Fig 5B, single pop.): 1.41 ± 0.10
operational range ([2]; Fig 5B, single pop., span between 5% and 95% of the activated response): 1.56 ± 0.07 orders of magnitude
operational range ([2]; Fig 5C legend, consortia of three engineered strains): 3.3 orders of magnitude
Hill slope ([2]; Fig 5C, mixed pop. of three strains 1:1:1): 0.78 ± 0.02
operational range ([2]; Fig 5C, mixed pop. of three strains 1:1:1, span between 5% and 95% of the activated response): 3.27 ± 0.08 orders of magnitude
change in Hill slope [2, 9]: almost halved the Hill slope
increase in operational range [2, 9]: 50 -fold

WCTRPGQGC [PbPeptide]
sensitivity [3]: nanomolar sensitivity
detection range ([4]; CCW12 promoter and signal amplification, two-strain consortia): picomolar range
narrowing of operational range ([4]; amplifier-receiver two strain consortia): 1,000 -fold

WHWLQLKPGQPMY [α-factor, S. cerevisiae peptide pheromone, ligand of Ste2]
activation at 100 pM ɑ-factor on Ste2 overexpression ([5]; Design 4 strain with 2x and 3x Ste2 (pCCW12), Fig S4H): unchanged
sensitivity and signal output compared with BY4741 ([5]; Quasi-WT strain, FUS1 promoter-sfGFP): substantial increase in sensitivity and signal output
sensitivity compared with Quasi-WT ([5]; design 3 strain (Gpa1 by PGK1, Ste2 by pCCW12), Fig 4A-B): approached the sensitivity of the Quasi-WT strain

COc1ccc2[nH]cc(CCNC(C)=O)c2c1 [Melatonin]
operational range ([6]; Fig 5F legend, single population): 3.8 orders of magnitude
Hill slope ([6]; Fig 5F, single pop.): 0.69 ± 0.03
operational range ([6]; Fig 5F, single pop., span between 5% and 95% of the activated response): 3.79 ± 0.15 orders of magnitude
Hill slope ([6]; Fig 5G, mixed pop., tuned two-strain system 1:1): 1.65 ± 0.06
operational range ([6]; Fig 5G, mixed pop., two-strain system, span between 5% and 95% of the activated response): 1.48 ± 0.19 orders of magnitude
Hill slope ([7]; Fig S6D, MTNR1A sensor strain, wild-type Gpa1, flow cytometry, triplicate isolates): 0.80 ± 0.04
linear range of dose-response ([7]; two-strain consortia, Fig 6B): four

TYADFLRAYQSWNTFVNPDRPNL [P-factor]
EC50 ([8]; Fig 4D, Mam2 - yWS677, 4 h induction, 1 % DMSO, SC medium, 30°C, sfGFP flow cytometry, mean ± SD, triplicate isolates): 117 nM
potency (EC50) compared with native S. pombe response ([8]; Mam2 sensor strain vs S. pombe (Croft et al., 2013)): identical potency (EC50)
